Molecular target: T1, Na+/K+-ATPase
T1 construct: gene ATP1A1
Assay: in vitro enzymatic assay, inorganic phosphate release during ATP hydrolysis (Taussky-Shorr, […] nm)
Type: biochemical

## C[C@H]1O[C@@H](O[C@H]2[C@@H](O)C[C@H](O[C@H]3[C@@H](O)C[C@H](O[C@H]4CC[C@@]5(C)[C@H](CC[C@@H]6[C@@H]5CC[C@]5(C)[C@@H](C7=CC(=O)OC7)CC[C@]65O)C4)O[C@@H]3C)O[C@@H]2C)C[C@H](O)[C@@H]1O [Digitoxin]
  EC50: 780 nM

Reference: article PMC6274445, “Compound Library Screening Identified Cardiac Glycoside Digitoxin as an Effective Growth Inhibitor of Gefitinib-Resistant Non-Small Cell Lung Cancer via Downregulation of α-Tubulin and Inhibition of Microtubule Formation” (Molecules, 2016)
